Laboratory results published in publication PMC6174881 (Journal of medicinal chemistry, 2018).
Read-outs that look alike come from different tables or passages of the source. Square brackets hold non-standard residues; d marks the D form. Peptide text beside a SMILES is read from it. hPhe = N[C@@H](CCc1ccccc1)C(=O)O; Nle = CCCC[C@H](N)C(=O)O

How the values were obtained:
mMC4R [1] = biological target: T1, mMC4R (Mus musculus, UniProt P56450); conditions: depending on the cAMP assay utilized; cited from earlier work
mMC1R [2] = biological target: T2, mMC1R (Mus musculus, UniProt Q01727)
mMC1R [3] = biological target: T2, mMC1R; test: cell-based
mMC5R = mMC5R (Mus musculus, UniProt P41149); test: AlphaScreen cAMP assay, agonist/inverse agonist activity at mMC5R
mMC3R [4] = biological target: T3, mMC3R (Mus musculus, UniProt P33033)
mMC4R [5] = biological target: T1, mMC4R
mMC3R [6] = biological target: T3, mMC3R; remark: listed apart in the source
mMC4R [7] = biological target: T1, mMC4R; conditions: cited from earlier work
mMC3R [8] = biological target: T3, mMC3R; conditions: cited from earlier work
mMC4R [9] = biological target: T1, mMC4R; remark: listed apart in the source
MC1R = conditions: read-out: MC1R agonist EC50; cited from earlier work
[10] = biological target: mouse melanocortin-1 receptor (mouse) (UniProt Q01727)
[11] = calculated using Ki values from Schild analysis
[12] = β-galactosidase reporter gene assay
[13] = calculated using antagonist Ki values

T3 sequence (P33033 whole entry): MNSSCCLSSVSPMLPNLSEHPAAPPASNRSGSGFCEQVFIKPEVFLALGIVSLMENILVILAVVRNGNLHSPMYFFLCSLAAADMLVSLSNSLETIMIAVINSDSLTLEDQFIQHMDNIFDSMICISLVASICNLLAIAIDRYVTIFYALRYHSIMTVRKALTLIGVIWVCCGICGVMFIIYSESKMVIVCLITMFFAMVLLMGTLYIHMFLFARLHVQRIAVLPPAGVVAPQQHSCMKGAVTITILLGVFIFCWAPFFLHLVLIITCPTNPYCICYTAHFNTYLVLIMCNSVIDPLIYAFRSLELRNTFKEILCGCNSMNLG
T1 sequence (P56450 whole entry): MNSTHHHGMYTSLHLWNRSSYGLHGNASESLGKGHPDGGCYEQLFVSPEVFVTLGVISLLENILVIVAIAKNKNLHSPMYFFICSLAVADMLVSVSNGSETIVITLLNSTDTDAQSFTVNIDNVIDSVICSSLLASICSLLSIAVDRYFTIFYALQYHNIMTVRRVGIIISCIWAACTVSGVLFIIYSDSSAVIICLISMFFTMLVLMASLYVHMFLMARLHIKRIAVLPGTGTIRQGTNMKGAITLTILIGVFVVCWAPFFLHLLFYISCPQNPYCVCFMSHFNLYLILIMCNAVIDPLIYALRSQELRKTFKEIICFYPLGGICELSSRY
T2 sequence (Q01727 whole entry): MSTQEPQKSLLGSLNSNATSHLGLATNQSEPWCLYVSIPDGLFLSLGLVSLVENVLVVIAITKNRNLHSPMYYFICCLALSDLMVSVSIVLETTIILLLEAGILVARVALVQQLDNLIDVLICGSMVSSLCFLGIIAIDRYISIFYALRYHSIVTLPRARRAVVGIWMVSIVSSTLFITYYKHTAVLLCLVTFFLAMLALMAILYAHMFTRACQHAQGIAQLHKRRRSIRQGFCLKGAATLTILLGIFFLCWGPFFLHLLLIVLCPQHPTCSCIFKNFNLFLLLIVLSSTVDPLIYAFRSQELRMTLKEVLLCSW
Sequence of mMC5R (P41149 whole entry): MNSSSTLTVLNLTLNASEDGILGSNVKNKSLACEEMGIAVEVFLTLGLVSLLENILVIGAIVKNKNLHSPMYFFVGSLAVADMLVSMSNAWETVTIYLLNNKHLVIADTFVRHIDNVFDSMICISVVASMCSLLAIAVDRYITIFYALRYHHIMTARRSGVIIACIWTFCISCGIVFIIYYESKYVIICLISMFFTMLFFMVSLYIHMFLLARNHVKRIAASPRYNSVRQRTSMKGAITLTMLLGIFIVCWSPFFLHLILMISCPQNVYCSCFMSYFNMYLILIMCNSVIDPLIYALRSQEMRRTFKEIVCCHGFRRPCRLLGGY
Sequence of mouse melanocortin-1 receptor (mouse) (Q01727 whole entry): as the sequence (Q01727 whole entry) above

Compound: C[C@@H]1NC(=O)[C@H](CC(N)=O)NC(=O)[C@H](Cc2ccccc2)NC(=O)[C@H](Cc2ccccc2)NC(=O)[C@H](CCCNC(=N)N)NC(=O)[C@@H]2CCCN2C(=O)[C@H]2CCCN2C(=O)[C@H](Cc2ccccc2)NC1=O [Compound 1, c[Pro-Arg-Phe-Phe-Asn-Ala-Phe-DPro]]
- mMC4R pA2 (mMC4R [1]): 7.7–8.1
- mMC1R partial agonist activity (X%), receptor stimulated to given percent (mMC1R [2]; maximal stimulation relative to NDP-MSH, sigmoidal dose-response): 80%
- EC50 (mMC1R [3]): 2800 ± 600 nM

Compound: C[C@@H]1NC(=O)[C@H](CCCNC(=N)N)NC(=O)[C@H](Cc2ccccc2)NC(=O)[C@H](Cc2ccccc2)NC(=O)[C@H](CCCNC(=N)N)NC(=O)[C@@H]2CCCN2C(=O)[C@H]2CCCN2C(=O)[C@H](Cc2ccccc2)NC1=O [Compound 9, c[Pro-Arg-Phe-Phe-Arg-Ala-Phe-DPro]] (cyclo(RFFRAF[dP]P))
- mMC1R partial agonist activity (X%), receptor stimulated to given percent (mMC1R [2]): 25%
- EC50 (mMC5R): > 100000 nM
- EC50 (mMC1R [3]): 600 ± 200 nM
- Kb (mMC3R [4]): 39.8 nM
- fold increase in potency at the mMC3R compared to 1 (mMC3R [4]; [11]): greater than 10 fold
- Kb (mMC4R [5]): 2 nM

Compound: C[C@@H]1NC(=O)[C@H](CC(N)=O)NC(=O)[C@H](CCc2ccccc2)NC(=O)[C@H](Cc2ccccc2)NC(=O)[C@H](CCCNC(=N)N)NC(=O)[C@@H]2CCCN2C(=O)[C@H]2CCCN2C(=O)[C@H](Cc2ccccc2)NC1=O [Compound 13, c[Pro-Arg-Phe-hPhe-Asn-Ala-Phe-DPro]]
- Antagonist mMC3R pA2 (mMC3R [6]): 5.6±0.2
- EC50 (mMC5R): > 100000 nM
- fold less potent than 1 at the mMC4R (mMC4R [7]; [12]): 5 fold
- mMC3R antagonist activity in words (mMC3R [8]; [12]): did not possess antagonist activity
- Kb (mMC3R [4]): 2510 nM
- Antagonist mMC3R pA2 (mMC3R [4]; Schild analysis with agonist NDP-MSH, pA2 = −log[Ki]): 5.6
- fold reduced potency at the mMC3R compared to 1 (mMC3R [4]; [11]): 5 fold
- Kb (mMC4R [5]): 5.01 nM
- mMC4R potency compared to lead peptide 1 in words (mMC4R [5]): equipotent to the lead peptide
- selectivity for the mMC4R over the mMC3R (mMC4R [5]; [13]): approximately 500 fold

Compound: C[C@@H]1NC(=O)[C@H](CCCNC(=N)N)NC(=O)[C@H](CCc2ccccc2)NC(=O)[C@H](Cc2ccccc2)NC(=O)[C@H](CCCNC(=N)N)NC(=O)[C@@H]2CCCN2C(=O)[C@H]2CCCN2C(=O)[C@H](Cc2ccccc2)NC1=O [Compound 21, c[Pro-Arg-Phe-hPhe-Arg-Ala-Phe-DPro]] (cyclo(RF[hPhe]RAF[dP]P))
- Antagonist mMC4R pA2 (mMC4R [9]): 8.9
- mMC5R activity in words (mMC5R; up to 100 μM): did not result in mMC5R stimulation
- fold less potent than AGRP at the mMC3R (mMC3R [4]): 5 fold
- mMC4R potency compared to AGRP in words (mMC4R [5]): equipotent to AGRP
- fold increase in potency at the mMC4R compared to 1 (mMC4R [5]; [11]): 6 fold
- fold decrease in mMC4R selectivity compared to 1 (mMC4R [5]; [13]): 7 fold

Compound: Tyr-c[Cys-Arg-Phe-Phe-Asn-Ala-Phe-Cys]-Tyr [hAGRP(109–118), reference compound]
- EC50 (MC1R): 3000 nM
- Antagonist mMC4R pA2 (mMC4R [7]; β-galactosidase reporter gene bioassay): 6.8±0.4
- mMC3R activity in words (mMC3R [8]; β-galactosidase reporter gene bioassay, up to 10 μM): No activity (Agonist or Antagonist)

Compound: cyclo(PRF[hPhe]RS[Nle][dP])
- agonist EC50, cAMP (AlphaScreen), HEK293 cells stably expressing mMC1R [10]: 400 nM
